Experiments:
Ehrlich ascites tumour = conditions: cited from earlier work
DLD1 = assay: modified propidium iodide cytotoxicity assay, colon tumour cell line; format: cell-based, human; conditions: Colon tumour cell line DLD1, 4 days of incubation
Description: (§1) Various human tumor cells were grown at 37° C. in a humidified atmosphere (95% air, 5% CO2) in monolayer cultures in RPMI 1640 medium with phenol red (Life Technologies, Karlsruhe, Germany) supplemented with 10% fetal calf serum. Cells were trypsinized and maintained weekly.
(§2) A modified propidium iodide assay (based on W. A. Dengler et. al, Anti-Cancer Drugs, 6, pp. 522-532 (1995)) was used to examine the antiproliferative activity of the study compounds. Briefly, cells will be harvested from exponential phase cultures growing in RPMI 1640 medium supplemented with 10% fetal calf serum by trypsination, counted and plated in 96 well flat-bottomed microtiter plates (140 μl cell suspension, 8×10^4 cells/ml). […] After thawing of the plates, fluorescence was measured using a Millipore Cytofluor 2350-microplate reader (excitation 530 nm, emission 620 nm) in order to quantify the total cell number. […]
(§3) Growth inhibition is expressed as Treated/Control×100 (or T/C %). IC50 and IC70 values were determined by plotting compound concentration versus cell number. Mean IC50 and IC70 values were calculated according to the formula: [formula]
(§4) With x=specific tumor cell line and n=total number of cell lines studied. If IC50 or IC70 could not be determined within the examined dose range, the lowest or highest concentration studied was used for the calculation.

GXF251L = assay: modified propidium iodide cytotoxicity assay, gastric tumour cell line; format: cell-based, human; conditions: 4 days of incubation
Description: as §1, §2, §3, §4

MXAF401NL = assay: modified propidium iodide cytotoxicity assay, mammary tumour cell line; format: cell-based, human; conditions: 4 days of incubation
Description: as §1, §2, §3, §4

OVCAR3 = assay: modified propidium iodide cytotoxicity assay, ovarian tumour cell line; format: cell-based, human; conditions: Ovarian tumour cell line OVCAR3, 4 days of incubation
Description: as §1, §2, §3, §4

PC3 = assay: modified propidium iodide cytotoxicity assay, prostate tumour cell line; format: cell-based, human; conditions: Prostate tumour cell line PC3, 4 days of incubation
Description: as §1, §2, §3, §4

RXF486L = assay: modified propidium iodide cytotoxicity assay, renal tumour cell line; format: cell-based, human; conditions: 4 days of incubation
Description: as §1, §2, §3, §4

promyelocytic leukaemia = assay: modified propidium iodide cytotoxicity assay, promyelocytic leukaemia (comparison); format: cell-based, human
Description: as §1, §2, §3, §4

Potassium arsenite
effect on tumour growth (Ehrlich ascites tumour): affected only the growth of Ehrlich ascites tumour

salt of meta-arsenite (AsO2^−) [meta-arsenite compound]
IC70 (DLD1): 0.48 µg/mL | IC70 (GXF251L): 3.08 µg/mL | IC70 (MXAF401NL): 0.32 µg/mL | IC70 (OVCAR3): 3.02 µg/mL | IC70 (PC3): 0.85 µg/mL | IC70 (RXF486L): 0.63 µg/mL | IC70 (promyelocytic leukaemia; promyelocytic leukaemia, comparison): 6.82 µg/mL | sensitivity of the Table I tumour cells relative to promyelocytic leukaemia (promyelocytic leukaemia; ratio of IC70 values, solid tumour cells versus promyelocytic leukaemia): 2 to 20 times

From US20050106262A1, “Pharmaceutical composition comprising arsenite for the treatment of malignancy” (Korea Microbiological Laboratories, Ltd., priority 2002, published 2005)
